Six compounds from patent publication US12673945B2, “3-((8-((1H-pyrazol-4-yl)amino)imidazo[1,2-a]pyridin-3-yl)ethinyl)-n-phenylbenzamide derivative, method for preparing same, and pharmaceutical composition containing same as active ingredient for prevention or treatment of cancer” (DAEGU-GYEONGBUK MEDICAL INNOVATION FOUNDATION, priority 2020, dated 2026) can be followed below.

Each structure is given as a SMILES string. Where only a bound is given, the exact number is not on record here.

Holding throughout (type): cell-based
One test deals with Parental (Ba/F3). The test can be described thus: Ba/F3 cell proliferation inhibition. The following applies: BaF3; 72 hours, Cell Counting Kit-8. An outline of the steps:
(§1)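 Parental and T315I-Bcr-Abl Ba/F3 cells, 1×10^4 per well, exposed 72 h at 37 °C to nine 3-fold dilutions, final 0 to 10 μM. Viability by CCK-8 after 2 h, absorbance 450 nm; GI50 fitted from percent of vehicle-treated cells.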

A further test concerns T315I-Bcr-Abl (Ba/F3). The test can be described thus: Ba/F3 cell proliferation inhibition. The settings on record: BaF3; 72 hours, Cell Counting Kit-8. The gist of the method:
as §1

The next test concerns KOPM28 cells. The test can be described thus: human CML cell proliferation inhibition. The following applies: 72 hours, Cell Counting Kit-8. An outline of the steps: (§2)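 Seed 1×10^4 cells/well; add compound, 9 concentrations by 5-fold dilution, final 0–10 μM, or DMSO; incubate 72 h, 37 °C, CO2; add CCK-8 for 2 h; read A450; normalise to vehicle; fit GI50.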
The next test has as its system T315I-TCCS cells. The test is described as follows: human CML cell proliferation inhibition. The settings on record: 72 hours, Cell Counting Kit-8. The gist of the method:
as §2

The next test concerns TCCS cells. The test is described as follows: human CML cell proliferation inhibition. The settings on record: 72 hours, Cell Counting Kit-8. An outline of the steps:
as §2

The subject of a further test is T315I-KOPM28 cells. The test can be described thus: human CML cell proliferation inhibition. The settings on record: 72 hours, Cell Counting Kit-8. An outline of the steps:
as §2

On to `Cc1cc(F)c(C(=O)Nc2cc(CN3CCOCC3)cc(C(F)(F)F)c2)cc1C#Cc1cnc2c(Nc3cnn(C)c3)cccn12` [Example 66, 2-fluoro-4-methyl-5-((8-((1-methyl-1H-pyrazol-4-yl)amino)imidazo[1,2-a]pyridin-3-yl)ethynyl)-N-(3-(morpholinomethyl)-5-(trifluoromethyl)phenyl)benzamide], for which the GI50 in the test with Parental (Ba/F3) was above 5000 nM; in the test with T315I-Bcr-Abl (Ba/F3) it was 50 to 500 nM; in the test on KOPM28 cells, below 10 nM; in the test on T315I-TCCS cells, above 100 nM; in the test on TCCS cells, below 10 nM; in the test on T315I-KOPM28 cells, above 100 nM.

On to `Cc1cc(F)c(C(=O)Nc2cc(CN3CCC(C(F)(F)F)CC3)cc(C(C)(C)C#N)c2)cc1C#Cc1cnc2c(Nc3cnn(C)c3)cccn12` [Example 31, N-(3-(2-cyanopropan-2-yl)-5-((4-(trifluoromethyl)piperidin-1-yl)methyl)phenyl)-2-fluoro-4-methyl-5-((8-((1-methyl-1H-pyrazol-4-yl)amino)imidazo[1,2-a]pyridin-3-yl)ethynyl)benzamide], for which the concentration for 50% growth inhibition (GI50) with Parental (Ba/F3) was above 5000 nM; with T315I-Bcr-Abl (Ba/F3) it was 50 to 500 nM; in the test on KOPM28 cells, below 10 nM; with T315I-TCCS cells, above 100 nM; in the test with TCCS cells, below 10 nM; with T315I-KOPM28 cells it was above 100 nM.

For the compound `Cc1cc(F)c(C(=O)Nc2cc(CN3CCN(S(C)(=O)=O)CC3)cc(C(F)(F)F)c2)cc1C#Cc1cnc2c(Nc3cnn(C)c3)cccn12` [Example 70, 2-fluoro-4-methyl-5-((8-((1-methyl-1H-pyrazol-4-yl)amino)imidazo[1,2-a]pyridin-3-yl)ethynyl)-N-(3-((4-(methylsulfonyl)piperazin-1-yl)methyl)-5-(trifluoromethyl)phenyl)benzamide], the GI50 in the test on Parental (Ba/F3) is above 5000 nM; in the test with T315I-Bcr-Abl (Ba/F3) it was 50 to 500 nM; in the test with KOPM28 cells, below 10 nM; in the test on T315I-TCCS cells, above 100 nM; in the test with TCCS cells it was below 10 nM; with T315I-KOPM28 cells, above 100 nM.

As to `Cc1cc(F)c(C(=O)Nc2cc(CN3CCN(C)C(=O)C3)cc(C(F)(F)F)c2)cc1C#Cc1cnc2c(Nc3cn[nH]c3)cccn12` [Example 107, 5-((8-((1H-pyrazol-4-yl)amino)imidazo[1,2-a]pyridin-3-yl)ethynyl)-2-fluoro-4-methyl-N-(3-((4-methyl-3-oxopiperazin-1-yl)methyl)-5-(trifluoromethyl)phenyl)benzamide], the concentration for 50% growth inhibition (GI50) was 500 to 5000 nM with Parental (Ba/F3); 50 to 500 nM with T315I-Bcr-Abl (Ba/F3); below 10 nM with KOPM28 cells; 100 nM with T315I-TCCS cells; below 10 nM in the test with TCCS cells; above 100 nM with T315I-KOPM28 cells.

Take `Cc1cc(F)c(C(=O)Nc2cc(CN3CCOCC3)cc(C(C)(C)C#N)c2)cc1C#Cc1cnc2c(Nc3cnn(C)c3)cccn12` [Example 28, N-(3-(2-cyanopropan-2-yl)-5-(morpholinomethyl)phenyl)-2-fluoro-4-methyl-5-((8-((1-methyl-1H-pyrazol-4-yl)amino)imidazo[1,2-a]pyridin-3-yl)ethynyl)benzamide]: the GI50 was above 5000 nM in the test on Parental (Ba/F3); 50 to 500 nM in the test on T315I-Bcr-Abl (Ba/F3); below 10 nM with KOPM28 cells; above 100 nM in the test with T315I-TCCS cells; below 10 nM in the test on TCCS cells; above 100 nM with T315I-KOPM28 cells.

For `Cc1cc(F)c(C(=O)Nc2cc(CN3CCN(C(C)C)CC3)cc(C(C)(C)C#N)c2)cc1C#Cc1cnc2c(Nc3cnn(C)c3)cccn12` [Example 33, N-(3-(2-cyanopropan-2-yl)-5-((4-isopropylpiperazin-1-yl)methyl)phenyl)-2-fluoro-4-methyl-5-((8-((1-methyl-1H-pyrazol-4-yl)amino)imidazo[1,2-a]pyridin-3-yl)ethynyl)benzamide], the 50% growth inhibitory concentration (GI50) in the test with Parental (Ba/F3) is 500 to 5000 nM; in the test on T315I-Bcr-Abl (Ba/F3) it was 50 to 500 nM; in the test on KOPM28 cells, below 10 nM; in the test with T315I-TCCS cells, 100 nM; in the test with TCCS cells, below 10 nM; in the test on T315I-KOPM28 cells, above 100 nM.
